Experimental data from patent US5559144A, “Furyl and thienyl alkynyl-N-hydroxy urea derivatives” (Abbott Laboratories, priority 1995, dated 1996).

Each compound was assayed on Leukotrienes (biosynthesis) (assay: Inhibition of leukotriene biosynthesis in vivo after oral administration, rat peritoneal anaphylaxis model). Conditions: 1 h, Oral Dose at 30 μmol/kg, gavage one hour prior to antigen challenge, read-out: Percent Inhibition of Leukotrienes.
Method: Inhibition of the biosynthesis of leuktrienes in vivo after oral administration of compound was determined using a rat peritoneal anaphylaxis model in a similar manner as that described by Young and coworkers (Young, P. R.; Dyer, R. D.; Carter, G. W. Fed. Proc., Fed. Am. Soc. Exp. Biol. 1985, 44, 1185). In this model rats were injected intraperitoneally (ip) with rabbit antibody to bovine serum albumin (BSA) and three hours later injected ip with BSA to induce an antgen-antibody response. Rats were sacrificed 15 minutes after this challenge and the peritoneal fluids were collected and analyzed for leukotriene levels. Test compounds were administered by gavage one hour prior to the antigen challenge. Percent inhibition values were determined by comparing the treatment group to the mean of the control group.

Structure (SMILES)	inhibition in vivo at 30 µmol/kg [%]
CC(C#Cc1ccc(Oc2ccccc2)o1)N(O)C(N)=O (stereo not drawn) [Example 58, N-hydroxy-N-[4-(5-phenoxy-2-furyl)-3-butyn-2-yl]urea]	83
CC(C#Cc1cccc(Oc2cccc(Cl)n2)c1)N(O)C(N)=O (stereo not drawn) [Example 68, N-Hydoxy-N-[4-[3-(6-chloropyridin-2-yloxy)phenyl]-3-butyn-2-yl]urea]	61
NC(=O)N(O)CC#Cc1cccc(Oc2cccnc2)c1 [Example 54, N-Hydroxy-N-[3-[3-(3-pyridinyloxy)phenyl]-2-propyn-1-yl]urea]	78
NC(=O)N(O)CC#Cc1ccc(Oc2ccc(F)cc2)o1 [Example 60, N-hydroxy-N-{3-[5-(4-fluorophenoxy)-2-furyl]-2-propynyl}urea]	70
NC(=O)N(O)CC#Cc1cccc(Oc2ccccn2)c1 [Example 63, N-Hydoxy-N-[3-[3-(2-pyridinyloxy)phenyl]-2-propyn-1-yl]urea]	85

Same assay, conditions: 1 h, Oral Dose at 100 μmol/kg, gavage one hour prior to antigen challenge, read-out: Percent Inhibition of Leukotrienes

Structure (SMILES)	inhibition in vivo at 100 µmol/kg [%]
NC(=O)N(O)CC#CCOc1cccc(Oc2cccnc2)c1 [Example 49]	98
CC(C#Cc1ccc(Cl)cc1)N(O)C(N)=O (stereo not drawn) [Example 19, N-Hydroxy-N-[4-(4-chlorophenyl)-3-butyn-2-yl]urea]	82
CC(C#Cc1ccoc1)N(O)C(N)=O (stereo not drawn) [Example 34, N-Hydroxy-N-[4-(3-furyl)-3-butyn-2-yl]urea]	96
NC(=O)N(O)CC#CCOc1cccc(Oc2ccccc2)c1 [Example 38, N-Hydroxy-N-[4-(3-phenoxyphenoxy)-2-butynyl]urea]	100
CC(C#Cc1cccc(Oc2ccc(F)cc2)c1)N(O)C(N)=O (stereo not drawn) [Example 43, N-Hydroxy-N-[4-[3-(4-fluorophenoxy)phenyl]-3-butyn-2-yl]urea]	98
NC(=O)N(O)CC#Cc1ccccc1 [Example 32, N-Hydroxy-N,(3,phenyl-2-propynyl)urea]	97

Same assay, conditions: 1 h, Oral Dose at 200 μmol/kg, gavage one hour prior to antigen challenge, read-out: Percent Inhibition of Leukotrienes

Structure (SMILES)	inhibition in vivo at 200 µmol/kg [%]
CC(C#Cc1ccccc1)N(O)C(N)=O (stereo not drawn) [Example 1, N-Hydroxy-N(4-phenyl-3-butyn-2-yl)urea]	98
CC(C#Cc1ccc(Br)cc1)N(O)C(N)=O (stereo not drawn) [Example 17, N-Hydroxy-N-[4-(4-bromophenyl)-3-butyn-2-yl]urea]	98
COc1ccc2cc(C#CC(C)N(O)C(N)=O)ccc2c1 (stereo not drawn) [Example 2, N-Hydroxy-N-[4-(6-methoxynaphth-2-yl)-3-butyn-2-yl]urea]	66
CC(C#CCOc1ccccc1)N(O)C(N)=O (stereo not drawn) [Example 10, N-Hydroxy-N-(5-phenoxy-3-pentyn-2-yl)urea]	99

These compounds were tested against T1, 5-Lipoxygenase from RBL-1 20,000xg Supernatant (Rattus norvegicus, UniProt P12527) (assay: 5-lipoxygenase inhibitory activity, 20,000 xg supernatant from homogenized RBL-1 cells). Conditions: radiolabeled arachidonic acid, triplicate.
T1 construct: 20,000 xg supernatant from 1.5 million homogenized RBL-1 cells; endogenous in cells; host or cells: RBL-1 cells (20,000 xg supernatant of homogenate)
T1 sequence (P12527 1-673): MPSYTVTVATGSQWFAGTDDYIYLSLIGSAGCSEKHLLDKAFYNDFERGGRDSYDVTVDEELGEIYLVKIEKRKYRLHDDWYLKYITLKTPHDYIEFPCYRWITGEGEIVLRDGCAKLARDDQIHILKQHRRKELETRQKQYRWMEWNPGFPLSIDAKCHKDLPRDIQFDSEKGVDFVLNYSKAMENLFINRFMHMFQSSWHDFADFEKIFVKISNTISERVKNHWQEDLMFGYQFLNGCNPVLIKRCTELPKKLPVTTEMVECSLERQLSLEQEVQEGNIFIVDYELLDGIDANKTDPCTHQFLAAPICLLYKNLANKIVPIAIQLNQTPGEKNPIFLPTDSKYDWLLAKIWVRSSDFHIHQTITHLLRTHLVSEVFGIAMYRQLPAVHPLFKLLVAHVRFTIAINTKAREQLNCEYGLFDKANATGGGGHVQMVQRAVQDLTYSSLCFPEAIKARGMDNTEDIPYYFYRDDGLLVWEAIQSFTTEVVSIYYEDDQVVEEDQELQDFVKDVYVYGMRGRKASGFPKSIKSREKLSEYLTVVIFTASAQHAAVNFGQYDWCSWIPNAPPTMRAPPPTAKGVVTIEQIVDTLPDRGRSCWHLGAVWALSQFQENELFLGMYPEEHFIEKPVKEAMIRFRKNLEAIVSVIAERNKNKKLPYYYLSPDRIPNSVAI
Format: biochemical
Method: Assays to determine 5-lipoxygenase inhibitory activity of representative compounds of the present invention were performed in […] incubations containing the 20,000 xg supernatant from 1.5 million homogenized RBL-1 cells and various concentrations of the test compound. Reactions were initiated by addition of radiolabeled arachidonic acid and terminated by acidification and ether extraction. Reaction products were separated from nonconverted substrate by thin layer chromatography and measured by liquid scintillation spectroscopy. All incubations are performed in triplicate. Inhibition of 5-lipoxygenase activity was calculated as the ratio of the amount of product formed in the presence and absence of inhibitor. […] (Dyer, R. D.; Haviv, F.; Hanel, A. M.; Bornemier, D. A.; Carter, G. W. Fed. Proc., Fed. Am. Soc. Exp. Biol. 1984, 43, 1462A).

IC50 [nM]	Structure (SMILES)
300	CNC(=O)N(O)C(C)C#Cc1cccc(Oc2ccccn2)c1 (stereo not drawn) [Example 56, N-Hydroxy-N-[4-[3-(2-pyridinyloxy)phenyl]-3-butyn-2-yl]-N'-methylurea]
300	CC(C#Cc1ccc(Oc2ccccc2)cc1)N(O)C(N)=O (stereo not drawn) [Example 12, N-Hydroxy-N[4-(4-phenoxyphenyl)-3-butyn-2-yl]urea]
2400	CC(C#Cc1ccccc1)N(O)C(N)=O (stereo not drawn) [Example 1, N-Hydroxy-N(4-phenyl-3-butyn-2-yl)urea]
200	CC(C#Cc1ccc(Oc2ccccc2)o1)N(O)C(N)=O (stereo not drawn) [Example 58, N-hydroxy-N-[4-(5-phenoxy-2-furyl)-3-butyn-2-yl]urea]
400	CC(C#Cc1ccc(Cl)cc1)N(O)C(N)=O (stereo not drawn) [Example 19, N-Hydroxy-N-[4-(4-chlorophenyl)-3-butyn-2-yl]urea]
400	Cc1ccc(Oc2cccc(C#CC(C)N(O)C(N)=O)c2)cc1 (stereo not drawn) [Example 35, N-Hydroxy-N-[4-[3-(4-methylphenoxy)phenyl]-3-butyn-2-yl]urea]
300	CCCCc1ccc(C#CC(C)N(O)C(N)=O)s1 (stereo not drawn) [Example 13, N-Hydroxy-N-[4-(5-butylthien-2-yl)-3-butyn-2-yl]urea]
800	CC(C#Cc1ccc(Br)cc1)N(O)C(N)=O (stereo not drawn) [Example 17, N-Hydroxy-N-[4-(4-bromophenyl)-3-butyn-2-yl]urea]
7000	CC(C#Cc1ccoc1)N(O)C(N)=O (stereo not drawn) [Example 34, N-Hydroxy-N-[4-(3-furyl)-3-butyn-2-yl]urea]
2000	COc1ccc(C#CC(C)N(O)C(N)=O)cc1 (stereo not drawn) [Example 37, N-Hydroxy-N-[4-(4-methoxyphenyl)-3-butyn-2-yl]urea]
3300	CNC(=O)N(O)C(C)C#Cc1ccccc1 (stereo not drawn) [Example 15, N-Hydroxy-N-(4-phenyl-3-butyn-2-yl)-N'-methylurea]
200	CC(C#CCOc1cccc(Oc2ccccc2)c1)N(O)C(N)=O (stereo not drawn) [Example 45, N-Hydroxy-N-[5-(3-phenoxyphenoxy)-3-pentyn-2-yl]urea]
1400	Cc1ccc(C#CC(C)N(O)C(N)=O)cc1 (stereo not drawn) [Example 28, N-Hydroxy-N-[4-(4-methylphenyl)-3-butyn-2-yl]urea]
300	CC(C#Cc1cccc(Oc2ccc(F)cc2)c1)N(O)C(N)=O (stereo not drawn) [Example 43, N-Hydroxy-N-[4-[3-(4-fluorophenoxy)phenyl]-3-butyn-2-yl]urea]
130	CC(C#Cc1ccc(OCc2ccccc2)cc1)N(O)C(N)=O (stereo not drawn) [Example 7, N-Hydroxy-N-[4-(4-benzyloxyphenyl)-3-butyn-2-yl]urea]
200	CC(C#Cc1cccc(Oc2cccc(Cl)n2)c1)N(O)C(N)=O (stereo not drawn) [Example 68, N-Hydoxy-N-[4-[3-(6-chloropyridin-2-yloxy)phenyl]-3-butyn-2-yl]urea]
5900	NC(=O)N(O)CC#Cc1ccccc1 [Example 32, N-Hydroxy-N,(3,phenyl-2-propynyl)urea]

IC50 [nM]	Structure (SMILES)
700	CNC(=O)N(O)C(C)C#CCCc1ccccc1 (stereo not drawn) [Example 27, N-Hydroxy-N-(6-phenyl-3-hexyn-2-yl)-N'-methylurea]
500	CNC(=O)N(O)C(C)C#Cc1ccc(Br)cc1 (stereo not drawn) [Example 18, N-Hydroxy-N-[4-(4-bromophenyl)-3-butyn-2-yl]-N'-methylurea]
3600	CC(C#CCN(C)Cc1ccccc1)N(O)C(N)=O (stereo not drawn) [Example 5, N-Hydroxy-N-[5-[(N-methyl-N-benzyl)amino]-3-pentyn,2-yl]urea]
100	CC(C#Cc1cccc(Oc2ccccc2)c1)N(O)C(N)=O (stereo not drawn) [Example 3, N-Hydroxy-N-[4-(3-phenoxyphenyl)-3-butyn-2-yl]urea]
500	COc1ccc(Oc2cccc(C#CC(C)N(O)C(N)=O)c2)cc1 (stereo not drawn) [Example 40, N-Hydroxy-N-[4-[3-(4-methoxyphenoxy)phenyl]-3-butyn-2-yl]urea]
100	CC(C#Cc1cc2ccccc2s1)N(O)C(N)=O (stereo not drawn) [Example 16, N-Hydroxy-N-[4-(2-benzo[b]thienyl)-3-butyn-2-yl]urea]
200	CC(C#Cc1cccc(OCc2ccccc2)c1)N(O)C(N)=O (stereo not drawn) [Example 6, N-Hydroxy-N-[4-(3-benzyloxyphenyl)-3-butyn-2-yl]urea]
900	CC(C#CCCc1cccc(Oc2ccccn2)c1)N(O)C(N)=O (stereo not drawn) [Example 55, N-Hydroxy-N-[6-[3-(2-pyridinyloxy)phenyl]-3-hexyn-2-yl,1]-urea]
1700	Cc1ccc(C#CC(C)N(O)C(N)=O)s1 (stereo not drawn) [Example 14, N-Hydroxy-N-[4-(5,methylthien-2-yl)-3-butyn-2-y]urea]
800	CNC(=O)N(O)C(C)C#Cc1ccc(C)cc1 (stereo not drawn) [Example 29, N-Hydroxy-N-[4-(4-methylphenyl)-3-butyn-2-yl]-N'-methylurea]
3500	NC(=O)N(O)CC#CCOc1ccccc1 [Example 41, N-Hydroxy-N-(4-phenoxy-2-butynyl)urea]
6200	CC(C#Cc1ccco1)N(O)C(N)=O (stereo not drawn) [Example 31, N-Hydroxy-N-[4-(2-furyl)-3-butyn-2-yl]urea]
1200	CC(C#CC1=CCCCC1)N(O)C(N)=O (stereo not drawn) [Example 9, N-Hydroxy-N-(4-cyclohexen-1-yl-3butyn-2-yl)urea]
200	COc1cccc(Oc2cccc(C#CC(C)N(O)C(N)=O)c2)n1 (stereo not drawn) [Example 65, N-Hydroxy-N-[4-[3-(6-methoxypyridin-2-yloxy)phenyl]-3-butyn-2-yl]urea]
500	CNC(=O)N(O)C(C)C#Cc1ccc(C(C)C)cc1 (stereo not drawn) [Example 23, N-Hydroxy-N-[4-[4-(1-methylethyl)phenyl]-3-butyn-2-yl]-N'-methylurea]
300	CCc1ccc(C#CC(C)N(O)C(N)=O)cc1 (stereo not drawn) [Example 24, N-Hydroxy-N-[4-(4-ethylphenyl)-3-butyn-2-yl]urea]
